Where a name gives a salt, the structure may show the parent alone.
Target: T1, SPHK-1 (Homo sapiens, UniProt Q9NYA1)
T1 construct: purchased BPS Bioscience
Assay: Reporter Assay: sphingosine kinase conversion of fluorescein-labeled sphingosine, read on Lab Chip 3000
Assay type: biochemical
Conditions: 2 μM Fl-sphingosine, 25 μM ATP, 300 ng/ml SK1, 1 hour at room temperature; from percent conversion of substrate to product; read-out: SPHK-1 IC50 (n =)
Experimental: Sphingosine kinase is a 49 kDa enzyme that catalyzes the formation of sphingosine-1-phosphate (S-1-P) from sphingosine.
Fluorescein labeled sphingosine was obtained from Echelon Biosciences (S-100F). Buffer reagents (1 M Hepes, 10 triton x-100, 100% glycerol, dithiothreitol 1 M MgCl2, ATP, 500 mM EDTA and DMSO) were purchased from Sigma. Coating reagent (CR-3), was obtained from Caliper Life Sciences.
0.05% Triton X-100, 2.5% glycerol, 0.1% CR-3, and 0,6% DMSO. Termination butler included 100 mM Hepes (pH 7.5), 40 mM EDTA, 0.05% Triton X-100, 2.5% glycerol, 0.3% CR-3, and 0.6% DMSO.
All assay components were made in reaction buffer. […] The assaylvas allowed to incubate at room temperature sealed and protected from light for 1 hour.
After 1 hour, 10 μl of termination buffer was added to terminate, the reaction, and the plate was read on a Lab Chip 3000. The plate was read for one cycle. The Lab Chip separated substrate and product based on charge.
Results were calculated based on percent conversion of substrate to product using the following formula: […]
Percent inhibition and IC50's for compounds of the invention were determined using the percent conversion values obtained horn the Lab Chip.

T1 sequence (Q9NYA1 whole entry): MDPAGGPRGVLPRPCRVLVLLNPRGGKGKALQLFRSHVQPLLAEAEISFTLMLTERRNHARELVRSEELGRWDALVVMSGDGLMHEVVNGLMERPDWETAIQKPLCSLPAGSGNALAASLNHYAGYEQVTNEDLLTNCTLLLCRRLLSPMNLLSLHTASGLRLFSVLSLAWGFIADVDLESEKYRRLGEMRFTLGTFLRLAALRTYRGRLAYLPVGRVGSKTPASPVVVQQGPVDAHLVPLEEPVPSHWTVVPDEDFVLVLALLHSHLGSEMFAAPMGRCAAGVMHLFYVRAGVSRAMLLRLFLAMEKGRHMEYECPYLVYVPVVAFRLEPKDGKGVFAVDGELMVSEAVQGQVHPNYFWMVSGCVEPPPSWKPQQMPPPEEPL

IC50	Compound
870 nM	CCCCCCCCc1ccc(NC(=O)[C@@H](N)[C@@H](C)O)cc1 [Example 29, (2S,3R)-2-Amino-3-hydroxy-N-(4-octylphenyl) butanamide]
110 nM	CCCCCCSCc1ccc(NC(=O)[C@H]2NCC[C@@H]2O)cc1 [Example 39, (2S,3S)-N-(4-(hexylthiomethyl)phenyl)-3-hydroxy-pyrrolidine-2-carboxamide]
9700 nM	CCCCCCCCCCc1ccc(NC(=O)[C@H]2C[C@H](O)CCN2)cc1 [Example 123, (2R,4R)—N-(4-decylphenyl)-4-hydroxypiperidine-2-carboxamide]
2100 nM	Cn1nc(-c2ccc(CNC(=O)[C@H]3NCC[C@@H]3O)cc2)nc1C1CCCCC1 [Example 63, (2S,3S)—N-(4-(5-Cyclohexyl-1-methyl-1H-1,2,4-triazol-3-yl)benzyl)-3-hydroxypyrrolidine-2-carboxamide]
430 nM	O=C(NCc1ccc2oc(CCC3CCCCC3)cc2c1)[C@H]1NCC[C@@H]1O [Example 117, (2S,3S)—N-((2-(2-Cyclohexylethyl)benzofuran-5-yl)-methyl)-3-hydroxypyrrolidine-2-carboxamide]
2900 nM	CCCCCCCCc1cccc(NC(=O)[C@@H](N)[C@@H](C)O)c1 [Example 11, (2S,3R)-2-Amino-3-hydroxy-N-(3-octylphenyl) butanamide]
180 nM	CCCCCCCSCc1ccc(CNC(=O)[C@H]2NCC[C@@H]2O)cc1 [Example 43, (2S,3S)-N-(4-(heptylthio-methyl)benzyl)-3-hydroxy-pyrrolidine-2-carboxamide]
6900 nM	CCCCCCCc1nc(-c2ccc3c(c2)CC[C@H]3NC(=O)[C@H]2NCC[C@@H]2O)no1 [Example 61]
150 nM	CC(C)CCCCCCc1ccc(NC(=O)[C@@H](N)[C@@H](C)O)cc1 [Example 16, (2S,3R)-2-Amino-3-hydroxy-N-(4-(7-methyloctyl)phenyl) butanamide]
59 nM	C[C@H](NC(=O)[C@H]1NCC[C@@H]1O)c1ccc(-c2noc(CCC3CCC3)n2)cc1 [Example 100, (2S,3S)—N—((S)-1-(4-(5-(2-Cyclobutylethyl)-1,2,4-oxadiazol-3-yl)phenyl)ethyl)-3-hydroxypyrrolidine-2-carboxamide hemi tartrate salt]
3800 nM	CCCCCCCCCc1ccc(NC(=O)C(N)CO)cc1 (racemic) [Example 13, (+/−)-2-Amino-3-hydroxy-N-(4-nonylphenyl) propanamide]
700 nM	CCCCCCCCc1cc2cc(CNC(=O)[C@H]3NCC[C@@H]3O)c(F)cc2o1 [Example 119, (2S,3S)—N-((6-Fluoro-2-octylbenzofuran-5-yl)methyl)-3-hydroxypyrrolidine-2-carboxamide]
190 nM	CCCCCCCCCCCCc1ccc(NC(=O)[C@@H](N)[C@@H](C)O)cc1 [Example 8, (2S,3R)-2-Amino-N-(4-dodecylphenyl)-3-hydroxy-butanamide]
160 nM	CCCCCCCc1cc2cc(CNC(=O)[C@H]3NCC[C@@H]3O)ccc2o1 [Example 113, (2S,3S)—N-((2-Heptylbenzofuran-5-yl)methyl)-3-hydroxypyrrolidine-2-carboxamide]
70 nM	CCCCCCCCc1cnc(-c2ccc(CNC(=O)[C@H]3NCC[C@@H]3O)cc2)s1 [Example 106, (2S,3S)-3-hydroxy-N-(4-(5-octylthiazol-2-yl)benzyl)pyrrolidine-2-carboxamide]
790 nM	O=C(NCc1cc(F)c2oc(C3CCCCC3)cc2c1)[C@H]1NCC[C@@H]1O [Example 122, (2S,3S)—N-((2-Cyclohexyl-7-fluorobenzofuran-5-yl)methyl)-3-hydroxypyrrolidine-2-carboxamide]
2300 nM	CCCCCCCCc1ccc(-c2ccc(NC[C@@H](N)[C@@H](C)O)cc2)cc1 [Example 60, (2R,3R)-3-Amino-4-(4′-octylbiphenyl-4-ylamino)butan-2-ol]
1200 nM	O=C(NCc1ccc2oc(C3CCCCC3)cc2c1)[C@H]1NCC[C@@H]1O [Example 115, (2S,3S)—N-((2-Cyclohexylbenzofuran-5-yl)methyl)-3-hydroxypyrrolidine-2-carboxamide]

Source: patent publication US20110275673A1, “INHIBITORS OF SPHINGOSINE KINASE 1” (priority 2008, published 2011)
